# Measurements: patent US20150258106A1, “METHODS FOR ACUTE AND LONG-TERM TREATMENT OF SUBSTANCE ABUSE” (DEMERX, INC., priority 2014, published 2015)
# Assay: Pharmacokinetics of noribogaine in healthy volunteers, ascending single oral dose (plasma noribogaine and noribogaine glucuronide)
# Settings: for AUC0-216 / AUC0-∞ / Cmax / Tmax / t1/2: healthy male volunteers, n = 6, mean (SD)
# [1] = glucuronide in plasma after single oral 30 mg noribogaine dose
# [2] = glucuronide in plasma after single oral 60 mg noribogaine dose
# [3] = plasma noribogaine glucuronide, 30 mg and 60 mg dose groups
structure (smiles),measurement,setting,value
"CC[C@H]1C[C@@H]2C[C@H]3c4[nH]c5ccc(OC6OC(C(=O)O)C(O)C(O)C6O)cc5c4CCN(C2)[C@@H]13 (some centres unmarked) [Noribogaine glucuronide, noribogaine glucuronide]",proportion of noribogaine glucuronide Cmax and AUC relative to noribogaine,"both dose groups (30 mg, 60 mg)",3-4%
same,AUC0-216,[1],25.7 (9.1) ng · hr/ml
same,AUC0-∞,[1],25.8 (9.3) ng · hr/ml
same,Cmax,[1],1.8 (0.6) ng/ml
same,Tmax,[1],3.0 (0.6) hr
same,t1/2,[1],20.6 (4.9) hr
same,AUC0-216,[2],65.0 (21.5) ng · hr/ml
same,AUC0-∞,[2],67.1 (21.9) ng · hr/ml
same,Cmax,[2],4.1 (1.2) ng/ml
same,Tmax,[2],3.8 (1.2) hr
same,t1/2,[2],23.1 (3.0) hr
same,Mean half-life,[3],21 to 23 h
same,time of peak concentrations after noribogaine dosing,[3],3 to 4 h
same,time by which noribogaine glucuronide was detected in all subjects,"plasma, after 30 mg or 60 mg noribogaine dose",≤ 0.75 h
